Test results: US20240150301A1, “METHODS OF MODULATING ANDROGEN RECEPTOR CONDENSATES” (ETERN BIOPHARMA (SHANGHAI) CO., LTD., priority 2021, published 2024)

Assays:
[1] = system: DU145 cells; test: Cell proliferation assay (CellTiter-Glo), DU145; type: cell-based; details: Homo sapiens, DU-145, 96 h; 4 days; read-out: DU145 IC50 AR-negative (cell proliferation)
Procedure: (§1) To evaluate the effect of exemplary compounds on proliferation of AR/AR-V7-dependent prostate cancer cells, cell viability assay was performed in LNCaP (AR-positive), 22Rv1 (AR-positive; AR-V7 positive), VCaP (AR-positive; AR-V7 positive), and DU145 (AR-negative) cells, respectively.
(§2) LNCaP cells were seeded in charcoal stripped FBS/phenol red-free RPMI medium in 96-well plates for 24 h before pretreating for 1 h with test compounds prior to addition of 0.2 nM DHT for 4 days. 22Rv1 or VCaP cells were cultured in charcoal stripped FBS/phenol red-free RPMI medium for 24 h before addition of test compounds for 4 days. DU145 cells were seeded in complete medium for 24 h before addition of test compounds for 4 days. Cell proliferation was measured with CellTiter-Glo® Luminescent Cell Viability Assay (Promega). In LNCaP cells, DHT-dependent cell growth is calculated by measuring the difference between vehicle control (DMSO) cells treated with or without 0.2 nM DHT. The IC50 values were determined using the four parameter fit via GraphPad Prism graphing software.

[2] = system: 22Rv1 cells; test: Cell proliferation assay (CellTiter-Glo), 22Rv1; type: cell-based; details: Homo sapiens, 22Rv1, 96 h; 4 days; read-out: 22Rv1 IC50 AR-positive; AR-V7 positive (cell proliferation)
Procedure: as §1, §2

[3] = molecular target: T1, AR-mEGFP nuclear puncta in LNCaP cells (Homo sapiens, UniProt P10275); test: AR phase separation inhibition IC50 testing (nuclear puncta imaging); type: cell-based; details: for IC50: LNCaP, compound 3 h before 20 nM DHT, 3 h DHT
T1 construct: expressed in transfected cells; host or cells: LNCaP
T1 sequence (P10275 1-920): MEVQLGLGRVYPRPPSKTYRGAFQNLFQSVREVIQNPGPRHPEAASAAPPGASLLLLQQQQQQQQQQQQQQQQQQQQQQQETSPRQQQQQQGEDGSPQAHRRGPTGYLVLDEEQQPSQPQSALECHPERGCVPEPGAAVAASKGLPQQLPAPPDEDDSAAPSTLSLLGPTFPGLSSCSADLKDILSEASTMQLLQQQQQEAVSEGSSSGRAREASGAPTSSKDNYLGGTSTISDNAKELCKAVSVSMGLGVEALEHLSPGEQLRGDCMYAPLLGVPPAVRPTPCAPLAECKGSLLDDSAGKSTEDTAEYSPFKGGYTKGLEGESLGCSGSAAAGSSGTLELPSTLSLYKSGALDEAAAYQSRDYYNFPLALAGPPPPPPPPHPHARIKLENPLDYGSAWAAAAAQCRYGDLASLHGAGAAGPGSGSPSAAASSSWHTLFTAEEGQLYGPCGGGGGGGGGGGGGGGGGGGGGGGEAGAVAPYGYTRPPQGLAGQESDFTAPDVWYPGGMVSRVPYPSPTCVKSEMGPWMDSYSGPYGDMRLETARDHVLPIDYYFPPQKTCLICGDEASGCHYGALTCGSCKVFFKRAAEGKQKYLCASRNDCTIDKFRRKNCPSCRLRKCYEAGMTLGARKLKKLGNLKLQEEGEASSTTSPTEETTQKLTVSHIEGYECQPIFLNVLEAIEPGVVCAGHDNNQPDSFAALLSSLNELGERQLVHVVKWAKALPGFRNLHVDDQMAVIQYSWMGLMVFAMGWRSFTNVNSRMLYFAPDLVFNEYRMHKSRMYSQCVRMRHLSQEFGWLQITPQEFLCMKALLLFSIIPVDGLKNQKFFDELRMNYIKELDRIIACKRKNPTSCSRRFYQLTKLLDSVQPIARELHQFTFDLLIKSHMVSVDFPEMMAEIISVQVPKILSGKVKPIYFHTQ
Procedure: Nuclear Puncta Imaging for Compounds IC50 Determination • LNCaP cells were cultured in a 10-cm dish. Cells were transfected with AR (AR or AR F877L/T878A)-mEGFP expression plasmids (pMSCV vector, 12 μg plasmid per 10-cm dish). 12 hours after transfection, medium were replaced with steroid hormone-free and phenol red-free RPMI1640 (starvation medium) and continued to starve for another 24 hours. Cells (80 μl, 20,000 per well) were seeded in a 96-well glass bottom plate (Cellvis, P96-1.5H-N) and cultured for another 24 hours. Then cells were incubated with 10× serial-diluted compounds […] for 3 hours before 20 nM DHT stimulation […]. After 3 hours DHT addition, cells were fixed with equal volume pre-warmed 8% PFA for 30 minutes and subsequently replaced with 100 μl PBS. Nuclear puncta images were acquired with Operetta CLS (Perkin Elmer) equipped with 60× water immersion lens (40 fields per well). The images were analyzed with Operetta built-in analysis modules. Nuclei were found from illumination corrected images with find nuclei module (type M) and filtered out low intensity nuclei. Subsequently puncta were first identified using find spot module (type A) and classified to high confident puncta and low confident puncta with PhenoLOGIC machine learning plug-in. For better representation, only high confident puncta were kept. The analyzed image puncta data were exported and statistics were processed with R/Bioconductor. The specific IC50 values were calculated by R/drc package (four-parameter log-logistic function).

[4] = system: LNCaP cells; test: Cell proliferation assay (CellTiter-Glo), LNCaP; type: cell-based; details: Homo sapiens, 96 h, 0.2 nM DHT, 4 days, read-out: LNCaP IC50 AR-positive (cell proliferation)
Procedure: as §1, §2

[5] = system: AR or AR-V7 downstream target genes; test: AR/AR-V7 target gene qPCR assay in 22Rv1 cells; type: cell-based, human; details: 22Rv1, 48 h, RT-qPCR
Procedure: To evaluate the effect of exemplary compounds on mRNA expression of AR or AR-V7 downstream target genes, real-time quantitative PCR measurements were performed in prostate cancer cell line 22Rv1 expressing both AR and AR-V7.
22Rv1 cells were cultured in charcoal stripped FBS/phenol red-free RPMI medium for 24 h, and then treated with DMSO or test compounds for additional 48 h prior to RT-qPCR. Briefly, RNA was isolated from cells using RNeasy Mini Kit (Qiagen) following the manufacturer's protocol. RNA was reverse transcribed and subjected to qPCR using PowerUp™ SYBR™ Green Master Mix (Applied Biosystems). The relative quantity of the target genes was calculated using the ΔΔCt method by comparing Ct of the target genes and mean Ct of the housekeeping gene GAPDH.

Structure (SMILES)	IC50 [1] [µM]	IC50 [2] [µM]	AR phase separation (FIG. 7) [3]	IC50 [3] [µM]	IC50 [4] [µM]	mRNA expression of target genes of either AR or AR-V7 [5]
CC(C)(c1ccc(OCc2ccnc(N=S3(=O)CCNCC3)n2)cc1)c1cc(Cl)c(OCCCl)c(C#N)c1 [Compound 6, 3-chloro-2-(2-chloroethoxy)-5-(2-(4-((2-((1-oxido-1λ^6-thiomorpholin-1-ylidene)amino)pyrimidin-4-yl)methoxy)phenyl)propan-2-yl)benzonitrile]	> 20	3.24	inhibited AR phase separation	3.6	0.86	inhibited mRNA expression
CC(C)(c1ccc(C#Cc2cnc(NS(C)(=O)=O)nc2)cc1)c1cc(Cl)c(OCCCl)c(C#N)c1 [Compound 60, N-(5-((4-(2-(3-chloro-4-(2-chloroethoxy)-5-cyanophenyl)propan-2-yl)phenyl)ethynyl)pyrimidin-2-yl)methanesulfonamide]	–	–	inhibited AR phase separation	2.5	–	–
CC(C)(c1ccc(OCc2ccnc(NS(C)(=O)=O)n2)cc1)c1cc(Cl)c(OCCCl)c(C#N)c1 [Compound AA, N-(4-((4-(2-(3-chloro-4-(2-chloroethoxy)-5-cyanophenyl)propan-2-yl)phenoxy)methyl)pyrimidin-2-yl) methane sulfonamide, reference compound]	17.2	> 20	did not show inhibition	> 20	7.01	inhibited mRNA expression
